Tests used:
[1] = Daytime color of polyurethane film with dye laminated to retroreflective sheeting; assay type: physicochemical; conditions: dye 0.2 wt.-% in aliphatic polyester polyurethane PN03.214, 0.1 mm film on Scotchlite 3970
Experimental: (§1) The daytime color of each article was measured using a Labsphere BFC-450 Bispectral Colorimeter commercially available from Labsphere, North Sutton, N.H. The daytime chromaticity (x,y), total luminance factor (YT), and fluorescence luminance factor (YF; which is a measure of the fluorescent properties of the article) calculated for the CIE D65 and the CIE 1931 observer are provided in TABLE II
Examples 24-27 were prepared as described in Examples 8-10, except that the dyes of Examples 1, 3, 6-(2-hydroxy-ethoxy)-14H-anthra(2,1,9-mna)thioxanthene-14-one (described by Carlini et al.) and 6-methoxy-14H-anthra(2,1,9-mna)thioxanthene-14-one were independently used at 0.2 wt.-% loading in an aliphatic polyester polyurethane resin commercially available from Huntsman Polyurethanes, West Deptford, N.J., USA under the trade designation “PN03.214”. The extrusion conditions for the polyurethane were 154-191° C. and the resultant film thickness was 0.1 mm.
The resultant films were laminated to Scotchlite 3970 reflective sheeting on aluminum panels as described in Examples 8-10. Color values were measured as described in Examples 8-10 and the results set out in TABLE VII.

[2] = Daytime color of Paraloid B66 dye coating on retroreflective sheeting; assay type: physicochemical; conditions: for YF (fluorescence luminance factor) / YT (total luminance factor) / x (daytime chromaticity) / y (daytime chromaticity): 0.10 parts dye in 64.8 parts Dowanol DPMA and 38.2 parts Paraloid B66, coated on Scotchlite 3970 with #16 wire wound bar, dried
Experimental: as §1
Examples 19-21 were prepared by independently stirring 0.10 parts of the dyes of Examples 1 and 3 and 6-methoxy-14H-anthra(2,1,9-mna)thioxanthene-14-one in a clear vehicle solution of 64.8 parts Dowanol DPMA and 38.2 parts Paraloid B66.
The fluorescent dye solutions were coated on Scotchlite 3970 reflective sheeting using a #16 wire wound bar. The coating was air dried for 5 minutes and then dried in a 120° C. oven for 45 minutes. Color values were measured as described in Examples 8-10 and the results set out in TABLE V.

[3] = Daytime color of polycarbonate sheet with dye laminated to retroreflective sheeting (Labsphere BFC-450 Bispectral Colorimeter); assay type: physicochemical; conditions: 0.2% dye in polycarbonate FCR-2407, 0.1 mm sheet on Scotchlite 3970; CIE D65, CIE 1931 observer
Experimental: Examples 8-10 were prepared with the compounds of Examples 1 and 2 and 6-methoxy-14H-anthra(2,1,9-mna)thioxanthene-14-one at a 0.2% loading in polycarbonate FCR-2407. Extrusion conditions for the polycarbonate were 260-304° C. using a single screw extruder. Optically transparent pressure sensitive adhesive with a liner on both sides of the adhesive was laminated to the 0.1 mm thick sheet of polycarbonate by removing one of the liners from the adhesive and then applying the exposed adhesive to the polycarbonate sheet with two passes of a roller using hand pressure.
The remaining liner was removed from the adhesive and the polycarbonate sheet construction was laminated to retroreflective sheeting commercially available from 3M under the trade designation “Scotchlite Diamond Grade LDP Reflective Sheeting Series 3970” (Scotchlite 3970) with two passes of a roller using hand pressure. The Scotchlite 3970 reflective sheeting had previously been laminated to a 7 cm wide by 28 cm long aluminum panel (6061T6 alloy with etch and desmut surface from Q Panel Company, Cleveland, Ohio) with two passes of a roller with hand pressure.
as §1

[4] = Dye concentration in saturated acetone solution at room temperature; assay type: physicochemical; conditions: 72 hours at RT, 0.45 micron PTFE filtered, absorbance at 535 nm
Experimental: Examples 4-7 were prepared by placing 60-100 mg of each of the compounds of Examples 1-3 and 6-methoxy-14H-anthra(2,1,9-mna)thioxanthene-14-one (described by Carlini et al.) in a vial with 5.0 ml acetone. […] Each vial was hand shaken and the solution was filtered using a 0.45 micron polytetrafluoroethylene (PTFE) filter commercially available from VWR Scientific Products, West Chester, Pa. under the trade designation “Acrodisc 13CR PTFE”.
The amount of fluorescent dye in the saturated acetone solution was determined by measuring the major dye absorption band at 535 nm using a UV-Vis Spectrophotometer commercially available from Shimadzu Scientific Instruments, Inc., Columbia, Md. under the trade designation “Shimadzu model UV-2401PC”. Dye concentrations were calculated by measuring the absorbance of the saturated acetone solution, and then diluting that solution until absorbance of the resulting solution was below 3. The dyes were assumed to have equal absorbance per mole. Using the dilution and an absorbance coefficient of 16,100 A/mol/L (coefficient obtained in acetone for the dye of Example 3) and assuming a Beer's Law relationship, the concentration of dye in each saturated solution was calculated and is set out in TABLE I

[5] = Daytime color and visual inspection of PMMA film with dye laminated to retroreflective sheeting; assay type: physicochemical; conditions: for visual inspection of film for undissolved dye: extruded PMMA CP923 film 0.1 mm, 6-methoxy dye at 1 wt.-%, dyes of Examples 1-2 at up to 1.27 wt-%
Experimental: as §1
Examples 11-16 were prepared with the compounds of Examples 1-2 and 6-methoxy-14H-anthra(2,1,9-mna)thioxanthene-14-one in polymethylmethacrylate (PMMA) resin at the wt.-% of dye shown in TABLE III. The samples were prepared by dry blending the dye with a medium impact modified grade PMMA resin commercially available from Ineos Acrylics Inc., Cordova, Tenn. under the trade designation “CP923”. Films of 0.1 mm thickness were extruded through a single screw extruder with three heating zones set at 249° C. to 260° C. […] Examples 11 and 12 and Examples 13 and 14 had equal molar loadings of dye.
The resultant films were laminated to Scotchlite 3970 reflective sheeting on aluminum panels as described in Examples 8-10. Color values were measured as described in Examples 8-10 and the results set out in TABLE III.

[6] = Daytime color of copolyester film with dye laminated to retroreflective sheeting; assay type: physicochemical; conditions: dye 0.2 wt.-% in copolyester resin, 0.1 mm film on Scotchlite 3970
Experimental: as §1
Examples 17-18 were prepared as described in Examples 8-10, except that the dyes of Examples 1 and 2 at a 0.2 wt.-% loading were independently incorporated into a copolyester resin. The copolyester resin was prepared using terephthalic and isophthalic acid in an 80/20 ratio and ethylene glycol in the conventional manner and analogous to the production of polyethylene terephthalate according to the method described in Macromolecular Syntheses, A Periodic Publication of Methods for the Preparation of Macromolecules, Collective Volume I, 1977, J. A. Moore, Editor, (John Wiley & Sons, New York; 1978);p. 17-21. The extrusion conditions for the copolyester were 254-260° C. using a single screw extruder and the resultant film thickness was 0.1 mm.
The resultant films were laminated to Scotchlite 3970 reflective sheeting on aluminum panels as described in Examples 8-10. Color values were measured as described in Examples 8-10 and the results set out in TABLE IV.

[7] = Daytime color of vinyl film with dye laminated to retroreflective sheeting; assay type: physicochemical; conditions: 0.18 g dye in 65 g GEON 178 / Elvacite 2013 mixture, 0.04 mm vinyl film on Scotchlite 3970
Experimental: as §1
Examples 22-23 were prepared by independently stirring 0.18 g of the dye of Examples 1 and 3 into 65 g of a mixture composed of 42 wt.-% DIBK, xylol, and mineral spirit (1.7:2.3:1), 44 wt.-% of a polyvinyl chloride dispersion commercially available from PolyOne, Cleveland, Ohio under the trade designation “GEON 178” and 14 wt.-% of a polyacrylate commercially available from Ineos Acrylics Inc., Cordova, Tenn. under the trade designation “Elvacite 2013”. Each mixture was allowed to stand at room temperature for one hour prior to knife coating onto a pre-sized paper substrate. Each coated substrate was placed in a 150° F. (66° C.) oven for 1.5 minutes, followed by a 300° F. (149° C.) oven for 1.0 minute and a 400° F. (204° C.) oven for 0.75 minute, resulting in a 0.04 mm thick fluorescent colored vinyl film.
The resultant films were laminated to Scotchlite 3970 reflective sheeting on aluminum panels as described in Examples 8-10. Color values were measured as described in Examples 8-10 and the results set out in TABLE VI.

[8] = dye 0.3 wt-% in PMMA CP923, 0.1 mm film on Scotchlite 3970
[9] = dye 1.0 wt-% in PMMA CP923, 0.1 mm film on Scotchlite 3970
[10] = dye 0.2 wt-% in PMMA CP923, 0.1 mm film on Scotchlite 3970

Compound	X (daytime chromaticity) [1]	YF (fluorescence luminance factor) [1]	YT (total luminance factor) [1]	y (daytime chromaticity) [1]	YF (fluorescence luminance factor) [2]	YT (total luminance factor) [2]	x (daytime chromaticity) [2]	y (daytime chromaticity) [2]	YF (fluorescence luminance factor) [3]	YT (total luminance factor) [3]	x (daytime chromaticity) [3]	y (daytime chromaticity) [3]	Dye Concentration in Acetone at RT [4] [mg/mL]	visual inspection of film for undissolved dye [5]	other results
O=c1c2ccccc2c2cc(OCCO)c3sc4ccccc4c4ccc1c2c34 [6-(2-hydroxy-ethoxy)-14H-anthra(2,1,9-mna)thioxanthene-14-one, reference compound]	0.6000	10.09	14.71	0.2756	–	–	–	–	–	–	–	–	–	–	–
COc1cc2c3ccccc3c(=O)c3ccc4c5ccccc5sc1c4c32 [6-methoxy-14H-anthra(2,1,9-mna)thioxanthene-14-one, reference compound]	0.5989	9.69	14.81	0.2780	1.12	17.05	0.3977	0.3225	16.15	28.24	0.6163	0.3025	0.06	particles of dye in the film	X (daytime chromaticity) [5, 8]: 0.6072; YF (fluorescence luminance factor) [5, 8]: 11.64; YT (total luminance factor) [5, 8]: 17.02; y (daytime chromaticity) [5, 8]: 0.3117; X (daytime chromaticity) [5, 9]: 0.5723; YF (fluorescence luminance factor) [5, 9]: 3.67; YT (total luminance factor) [5, 9]: 5.28; y (daytime chromaticity) [5, 9]: 0.3064
CCCCC(CC)COc1cc2c3ccccc3c(=O)c3ccc4c5ccccc5sc1c4c32 (stereo not shown) [Example 2, 6-[(2-Ethylhexyl)oxy]-14H-anthra[2,1,9-mna]thioxanthene-14-one]	–	–	–	–	–	–	–	–	16.6	32.05	0.5336	0.2979	0.96	uniform appearance with no undissolved dye seen	melting point: 175 to 177 °C; YF (fluorescence luminance factor) [6]: 12.77; YT (total luminance factor) [6]: 19.91; x (daytime chromaticity) [6]: 0.5627; y (daytime chromaticity) [6]: 0.2785; X (daytime chromaticity) [5, 10]: 0.6064; YF (fluorescence luminance factor) [5, 10]: 14.69; YT (total luminance factor) [5, 10]: 31.13; y (daytime chromaticity) [5, 10]: 0.3113
CC(C)CC(CC(C)C)Oc1cc2c3ccccc3c(=O)c3ccc4c5ccccc5sc1c4c32 [Example 3, 6-(1-Isobutyl-3-methylbutoxy)-14H-anthra[2,1,9-mna]thioxanthene-14-one]	0.5970	11.62	17.66	0.2886	17.05	33.17	0.4971	0.3113	–	–	–	–	2.98	–	Y (daytime chromaticity) [7]: 0.2609; YF (fluorescence luminance factor) [7]: 12.92; YT (total luminance factor) [7]: 24.21; x (daytime chromaticity) [7]: 0.4952; appearance of coated article ([2]; dye in Paraloid B66 coating on Scotchlite 3970): bright fluorescent pink appearance

Source: patent US6841236B2, “Articles containing thioxanthone dyes” (3M Innovative Properties Co., priority 2001, dated 2005)
